Laboratory results as given in patent publication US20240424019A1, “SHP1 MODIFIED DENDRITIC CELLS AND EXTRACELLULAR VESICLES DERIVED THEREFROM AND ASSOCIATED METHODS” (BOARD OF REGENTS, THE UNIVERSITY OF TEXAS SYSTEM, priority 2021, published 2024).

Assays:
[1] = system: EMT6 mammary tumors; assay: Orthotopic EMT6 mammary tumor model; assay type: in vivo, mouse
[2] = system: Scarb1-/-DCs; assay: BMDCs from Scarb1-/- versus wild-type mice; assay type: cell-based, mouse
Excerpt: VitE can enter enterocytes via the SCARB1 receptor, and SCARB1 facilitates the uptake of cholesteryl esters from high-density lipoproteins. […] To determine whether SCARB1 is required for VitE-induced DC activation, we generated BMDCs from Scarb1-/-versus wild-type mice. […] Taken together, VitE enters DCs via SCARB1 and binds SHP1 to inhibit pSHP1, leading to DC activation, which increases antitumor T-cell immunity (data not shown; see Yuan et al. 2022, FIG. 4I; see also U.S. Provisional Application No. 63/252,721, FIG. 4D).

[3] = system: cancer patients; assay: Retrospective analysis of electronic health records of cancer patients receiving ICT (anti-PD-1/PD-L1); assay type: in vivo, human
Excerpt: FIG. 1A: Percentages of deceased cancer patients taking dietary nutritional supplements during ICT treatment (Anti-PD-1/PDL1: Pembrolizumab/Atezolizumab) (n=7,667 including 1,888 breast cancer patients, 2,715 melanoma patients, and 3,064 prostate cancer patients). Each bar represents a group of patients who took one type of nutritional supplement along with ICT (Red dashed line indicated the median percentage of deceased cancer patients in this study). […] FIGS. 1C-1D: Tumor growth curves of orthotopic EMT6 TNBC tumor-bearing Balb/c mice (FIG. 1C, n=5) and orthotopic B16-GMCSF melanoma tumor-bearing C57BL/6 mice (FIG. 1D, left, n=5) treated with vehicle, 50 mg/kg of Vitamin E (VitE), […] anti-PDI (ICT), or Vitamin E+anti-PD1 (VitE+ICT) (n=5). Flow cytometry quantification of Granzyme B^+CD8^+ T cells in tumor tissues at 20 days post-implantation (FIG. 1D. right, n=5). FIG. 1E: Tumor growth curves of orthotopic B16-F10 melanoma tumor-bearing C57BL/6 mice with the indicated treatments (n=5). FIG. 1F: Tumor growth curves of orthotopic B16-FLT3L melanoma tumor-bearing C57BL/6 mice with the indicated treatments (n=5). […]
We retrospectively analyzed electronic health records for the clinical outcomes of cancer patients receiving ICT immunotherapies (anti-PD-1/PD-L1). […]

[4] = biological target: purified SHP1 (Homo sapiens, UniProt P29350); assay: Microscale thermophoresis (MST) binding assay; details: mean of triplicates; read-out: apparent dissociation constant Kd
Procedure: FIG. 3A: Volcano plot of reverse phase protein array (RPPA) data of mouse BMDCs treated with VitE (50 μg/ml) compared to those treated with vehicle control with tumor conditioned media (TCM) for 48 hours (n=3 independent samples). […] The grey dashed line indicates P-value of 0.05. FIG. 3B: t-SNEs by CyTOF and quantification comparing the intensity of pY564-SHP1 in TADCs from the vehicle-or VitE-treated EMT6 tumors at day 15 post-implantation. FIG. 3C: Top, SHP1 knockdown in BMDCs was effective. Bottom, CFSE-dilution analysis of OT-1 T cells co-cultured with OVA protein-pulsed BMDCs (ratio 10:1) with knockdown of SHP1 by siPtpn6 versus siCtrl (n=3). Right, quantification of OT-1 T-cell numbers under the indicated condition. FIG. 3D: The binding of VitE to purified SHP1 is analyzed by microscale thermophoresis (MST) binding assay. […] FIG. 3E: Relative tyrosine phosphatase activity of SHP1 immunoprecipitated from LPS (100 ng/ml)-activated DC2.4 cells in the presence of indicated doses of VitE (mean of triplicates). FIG. 3F: SHP1 tyrosine phosphatase activity in LPS (100 ng/ml)-activated BMDCs (n=6) treated with vehicle-or VitE (50 μg/ml). Error bars, s.e.m. ns, no significant. *P<0.05, **P<0.01. ***P<0.001, ****P<0.0001. […]

purified SHP1, sequence (P29350 whole entry): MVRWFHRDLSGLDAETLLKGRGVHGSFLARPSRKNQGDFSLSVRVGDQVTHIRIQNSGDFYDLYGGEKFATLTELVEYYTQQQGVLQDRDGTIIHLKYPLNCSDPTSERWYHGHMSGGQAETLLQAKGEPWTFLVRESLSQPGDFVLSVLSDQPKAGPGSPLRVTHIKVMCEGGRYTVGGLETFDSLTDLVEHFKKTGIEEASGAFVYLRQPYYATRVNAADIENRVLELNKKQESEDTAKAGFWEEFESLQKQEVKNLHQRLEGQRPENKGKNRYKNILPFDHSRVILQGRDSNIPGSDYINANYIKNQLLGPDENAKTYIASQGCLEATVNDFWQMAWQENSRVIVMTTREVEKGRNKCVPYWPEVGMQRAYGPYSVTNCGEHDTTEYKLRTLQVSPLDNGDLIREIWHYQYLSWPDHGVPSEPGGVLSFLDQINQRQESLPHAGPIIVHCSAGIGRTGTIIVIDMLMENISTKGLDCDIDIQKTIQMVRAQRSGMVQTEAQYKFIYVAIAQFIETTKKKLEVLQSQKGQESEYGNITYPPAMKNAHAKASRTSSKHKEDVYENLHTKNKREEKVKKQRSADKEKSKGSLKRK

Cc1c(C)c2c(c(C)c1O)CC[C@@](C)(CCC[C@H](C)CCC[C@H](C)CCCC(C)C)O2 [VitE, D-α-Tocopherol]
average tumor volume at day 15 ([1]; BALB/c mice, n=10 per group, vehicle-treated 350 mm^3): 173 mm^3
pY564-SHP1 level in TADCs ([1]; CyTOF, day 15 post-implantation, VitE vs vehicle): reduced the pY564-SHP1 level in TADCs
therapeutic response ([1]; VitE 50 mg/kg and ICT (anti-PD1) combo-treatment): significantly improved therapeutic response
tumor growth ([1]; VitE alone vs vehicle-treated group): reduced tumor growth
tumor infiltration of immune cells (CyTOF of CD45+ cells) ([1]; VitE treatment vs vehicle): increased the tumor infiltrations of CD11c+DCs and CD8+ T cells
pY564-SHP1 in Scarb1-/- DCs ([2]; VitE treatment, unlike wild-type DCs): failed to inhibit pY564-SHP1
proliferation of cocultured T cells ([2]; VitE-treated Scarb1-/- DCs, in contrast to wild-type DCs): did not induce proliferation of cocultured T cells
survival rate of cancer patients ([3]; VitE during anti-PD-1/PD-L1 treatment vs any of 14 other dietary or nutritional supplements): significantly improved survival rate
Percentages of deceased cancer patients ([3]; took VitE during anti-PD-1/PD-L1 treatment (n=83), patients who did not 21.2% (n=7,574), Fisher P 0.0027): 8.4%
Kd [4]: 39 µM
